{"source": "patent US20210017295A1", "about": "“BISPECIFIC BINDING AGENTS AND USES THEREOF” (MEMORIAL SLOAN KETTERING CANCER CENTER, priority 2018, published 2021)", "key": {"[1]": {"assay": "Histopathology at necropsy and pathology severity scoring", "type": "in vivo, mouse", "settings": "small tumors; single-cycle study; ~85 d; individual animals"}, "[2]": {"test_system": "s.c. HER2(−) MDA-MB-468 tumors", "type": "in vivo, mouse", "settings": "24 h p.i."}, "Clinical chemistry panel": {"assay": "Clinical chemistry panel", "type": "in vivo, mouse", "settings": "small tumors; single-cycle study, 55.5 MBq; ~85 d"}, "[3]": {"assay": "Toxicity assessment: weight monitoring and removal criteria", "type": "in vivo, mouse"}, "HER2(+) BT-474 tumors": {"test_system": "HER2(+) BT-474 tumors", "assay": "Biodistribution with modified BsAb / clearing agent time intervals (same-day PRIT)", "type": "in vivo, mouse", "settings": "for average blood uptake / average tumor uptake: 24 h p.i.", "protocol": "During a second set of experiments (Table 31), the BsAb timing interval was varied, as well as the timing interval between the clearing agent and ^177Lu-DOTA-Bn. All animals were sacrificed 24 hours-post-injection of ^177Lu-DOTA-Bn."}, "[4]": {"test_system": "s.c. HER2(+) BT-474 tumors", "assay": "Dosimetry calculations (estimated absorbed doses, therapeutic index)", "settings": "optimized anti-HER2-DOTA-PRIT, from 1.0-336 h biodistribution", "excerpt": "For each tissue, the non-decay-corrected time-activity concentration data were fit using Excel to a 1-component, 2-component, or more complex exponential function as appropriate, and analytically integrated to yield the cumulated activity concentration per unit administered activity (MBq-h/g per MBq). The ^177Lu equilibrium dose constant for non-penetrating radiations (8.49 g-cGy/MBq-h) was used to estimate the tumor-to-tumor and select organ-to-organ self-absorbed doses, assuming complete local absorption of the ^177Lu beta rays only, and ignoring the gamma ray and non-self dose contributions."}, "Hematology panel": {"assay": "Hematology panel", "type": "in vivo, mouse", "settings": "small tumors; single-cycle study, 55.5 MBq; ~85 d"}, "[5]": {"settings": "MDA-MB-468 HER2(−), PRIT + no CA, mean ± SEM"}, "[6]": {"settings": "medium tumors, single-cycle, 33.3 MBq, ~200 d"}, "[7]": {"settings": "small tumors, single-cycle study, 55.5 MBq, ~85 d"}, "[8]": {"settings": "BsAb for 4 hours, then CA vehicle only (total BsAb circulation 8 hours)"}, "[9]": {"settings": "Table 30 group 3 (increased clearing agent dose)"}}, "note": "Where “and” joins values, the source holds several entries; their conditions need not be identical. Equal entries are not always repeated.", "data": [{"compound": "Nc1ccc(CC2CN(CC(=O)[O-])CCN(CC(=O)[O-])CCN(CC(=O)[O-])CCN2CC(=O)[O-])cc1.[177Lu+3]", "note": "(centres unmarked) [^177Lu-DOTA-Bn]", "values": [{"measurement": "Histopathologic findings, Bone marrow", "setting": "[1]", "result": "N"}, {"measurement": "Histopathologic findings, Kidney", "setting": "[1]", "result": "N"}, {"measurement": "Histopathologic findings, Liver", "setting": "[1]", "result": "N"}, {"measurement": "Histopathologic findings, Spleen", "setting": "[1]", "result": "HH, 3. and N (2×)"}, {"measurement": "tumor uptake in HER2(−) tumors vs HER2(+) BT-474 tumors, fold lower", "setting": "[2]; PRIT, no CA", "result": "~7", "unit": "fold"}, {"measurement": "^177Lu activity in Blood", "setting": "[2]; [5]", "result": "6.59 ± 1.31", "unit": "% IA/g"}, {"measurement": "^177Lu activity in Bone", "setting": "[2]; [5]", "result": "0.62 ± 0.17", "unit": "% IA/g"}, {"measurement": "^177Lu activity in Heart", "setting": "[2]; [5]", "result": "1.78 ± 0.29", "unit": "% IA/g"}, {"measurement": "^177Lu activity in Kidneys", "setting": "[2]; [5]", "result": "2.39 ± 0.54", "unit": "% IA/g"}, {"measurement": "^177Lu activity in Large Int.", "setting": "[2]; [5]", "result": "0.35 ± 0.06", "unit": "% IA/g"}, {"measurement": "^177Lu activity in Liver", "setting": "[2]; [5]", "result": "2.69 ± 0.35", "unit": "% IA/g"}, {"measurement": "^177Lu activity in Lungs", "setting": "[2]; [5]", "result": "2.44 ± 0.42", "unit": "% IA/g"}, {"measurement": "^177Lu activity in Muscle", "setting": "[2]; [5]", "result": "0.50 ± 0.14", "unit": "% IA/g"}, {"measurement": "^177Lu activity in Small Int.", "setting": "[2]; [5]", "result": "0.61 ± 0.11", "unit": "% IA/g"}, {"measurement": "^177Lu activity in Spleen", "setting": "[2]; [5]", "result": "1.06 ± 0.16", "unit": "% IA/g"}, {"measurement": "^177Lu activity in Stomach", "setting": "[2]; [5]", "result": "0.27 ± 0.04", "unit": "% IA/g"}, {"measurement": "^177Lu activity in Tumor", "setting": "[2]; [5]", "result": "2.75±0.17", "unit": "% IA/g"}, {"measurement": "ALT", "setting": "Clinical chemistry panel", "result": "34 U/L and 40 U/L and 30 U/L and 45 U/L and 24 U/L"}, {"measurement": "BUN", "setting": "Clinical chemistry panel", "result": "22 mg/dL and 21 mg/dL and 23 mg/dL and 33 mg/dL and 38 mg/dL"}, {"measurement": "CREA", "setting": "Clinical chemistry panel", "result": "0.20 mg/dL and 0.18 mg/dL and 0.19 mg/dL and 0.30 mg/dL and 0.22 mg/dL"}, {"measurement": "animals removed: Discovered deceased", "setting": "[3]; [6]", "result": "1/5"}, {"measurement": "animals removed: Tumor burden", "setting": "[3]; [6]", "result": "4/5"}, {"measurement": "animals removed: Weight loss", "setting": "[3]; [6]", "result": "0/5"}, {"measurement": "animals removed: Discovered deceased", "setting": "[3]; [7]", "result": "0/5"}, {"measurement": "animals removed: Tumor burden", "setting": "[3]; [7]", "result": "0/5"}, {"measurement": "animals removed: Weight loss", "setting": "[3]; [7]", "result": "0/5"}, {"measurement": "Tumor:Blood ratio", "setting": "HER2(+) BT-474 tumors; [8]", "result": "~3.2"}, {"measurement": "blood uptake", "setting": "HER2(+) BT-474 tumors; [8]", "result": 12.07, "unit": "% ID/g"}, {"measurement": "tumor uptake", "setting": "HER2(+) BT-474 tumors; [8]", "result": "~40", "unit": "% ID/g"}, {"measurement": "average blood uptake", "setting": "HER2(+) BT-474 tumors; Table 30 group 1", "result": 0.06}, {"measurement": "average tumor uptake", "setting": "HER2(+) BT-474 tumors; Table 30 group 1", "result": 11.62}, {"measurement": "average blood uptake", "setting": "HER2(+) BT-474 tumors; [9]", "result": 0.03}, {"measurement": "average tumor uptake", "setting": "HER2(+) BT-474 tumors; [9]", "result": 4.14}, {"measurement": "Estimated absorbed dose, Blood", "setting": "[4]", "result": 1.4, "unit": "cGy/MBq"}, {"measurement": "Estimated absorbed dose, Bone", "setting": "[4]", "result": 0.7, "unit": "cGy/MBq"}, {"measurement": "Estimated absorbed dose, Heart", "setting": "[4]", "result": 0.4, "unit": "cGy/MBq"}, {"measurement": "Estimated absorbed dose, Kidneys", "setting": "[4]", "result": 5.6, "unit": "cGy/MBq"}, {"measurement": "Estimated absorbed dose, Large Intestine", "setting": "[4]", "result": 0.8, "unit": "cGy/MBq"}, {"measurement": "Estimated absorbed dose, Liver", "setting": "[4]", "result": 3.3, "unit": "cGy/MBq"}, {"measurement": "Estimated absorbed dose, Lung", "setting": "[4]", "result": 1.3, "unit": "cGy/MBq"}, {"measurement": "Estimated absorbed dose, Muscle", "setting": "[4]", "result": 0.9, "unit": "cGy/MBq"}, {"measurement": "Estimated absorbed dose, Small Intestine", "setting": "[4]", "result": 0.4, "unit": "cGy/MBq"}, {"measurement": "Estimated absorbed dose, Spleen", "setting": "[4]", "result": 0.3, "unit": "cGy/MBq"}, {"measurement": "Estimated absorbed dose, Stomach", "setting": "[4]", "result": 0.3, "unit": "cGy/MBq"}, {"measurement": "Estimated absorbed dose, Tumor", "setting": "[4]", "result": 39.9, "unit": "cGy/MBq"}, {"measurement": "HGB", "setting": "Hematology panel", "result": "13.1 g/dL and 12.9 g/dL and 14.3 g/dL and 14.9 g/dL and 14.0 g/dL"}, {"measurement": "RBC", "setting": "Hematology panel", "result": "8.22 M/μL and 7.74 M/μL and 8.54 M/μL and 8.80 M/μL and 8.32 M/μL"}]}]}
